Among the data in ChEMBL document CHEMBL2074560, “cDNA cloning, functional characterization, and tissue distribution of an alternatively spliced variant of organic cation transporter hOCT2 predominantly expressed in the human kidney” (J Am Soc Nephrol, 2002) are Activity values, retold here.

Type in all cases: functional, cell-based
In data set [1] the target is T1, Solute carrier family 22 member 2 (Homo sapiens, UniProt O15244).
T1 sequence (O15244 whole entry): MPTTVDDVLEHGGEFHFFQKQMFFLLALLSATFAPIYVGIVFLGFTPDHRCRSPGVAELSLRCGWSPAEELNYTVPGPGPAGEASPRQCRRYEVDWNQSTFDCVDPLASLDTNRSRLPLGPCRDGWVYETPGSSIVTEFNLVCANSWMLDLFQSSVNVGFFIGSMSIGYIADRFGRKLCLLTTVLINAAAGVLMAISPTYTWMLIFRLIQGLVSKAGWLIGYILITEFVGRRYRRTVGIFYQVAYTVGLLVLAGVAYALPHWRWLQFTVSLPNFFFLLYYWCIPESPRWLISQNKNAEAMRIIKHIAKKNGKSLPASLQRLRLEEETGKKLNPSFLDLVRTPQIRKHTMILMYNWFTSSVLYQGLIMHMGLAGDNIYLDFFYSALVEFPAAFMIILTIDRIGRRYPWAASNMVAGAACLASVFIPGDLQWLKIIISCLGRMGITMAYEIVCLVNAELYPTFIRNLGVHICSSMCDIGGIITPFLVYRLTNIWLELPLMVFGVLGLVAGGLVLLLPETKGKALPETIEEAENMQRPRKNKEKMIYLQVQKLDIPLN
In words: TP_TRANSPORTER: uptake in OCT2A-expressing HEK293 cells.

In data set [2] the target is T1, Solute carrier family 22 member 2. Nature of the data set: TP_TRANSPORTER: inhibition of TEA uptake (TEA: 5 uM, MPP+: 1000 uM) in OCT2A-expressing HEK293 cells. Conditions: hek293, 1000 µM.
Data set [3] has the same target. In words: TP_TRANSPORTER: inhibition of TEA uptake (TEA: 5 uM, N-acetyl procainamide: 1000 uM) in OCT2A-expressing HEK293 cells. Conditions: hek293, 1000 µM.
For data set [4] the target is unchanged. Nature of the data set: TP_TRANSPORTER: inhibition of TEA uptake (TEA: 5 uM, N-acetyl procainamide: 1000 uM) in OCT2-expressing HEK293 cells. Particulars: hek293, 1000 µM.
For data set [5] the target is unchanged. Nature of the data set: TP_TRANSPORTER: inhibition of TEA uptake (TEA: 5 uM, Amantadine: 100 uM) in OCT2A-expressing HEK293 cells. Conditions: hek293, 100 µM.
The target is the same in data set [6]. Nature of the data set: TP_TRANSPORTER: inhibition of TEA uptake (TEA: 5 uM, Creatinine: 1000 uM) in OCT2A-expressing HEK293 cells. Conditions: hek293, 1000 µM.
Data set [7] has the same target. Nature of the data set: TP_TRANSPORTER: inhibition of TEA uptake (TEA: 5 uM, Creatinine: 1000 uM) in OCT2-expressing HEK293 cells. Particulars: hek293, 1000 µM.
For data set [8] the target is unchanged. Nature of the data set: TP_TRANSPORTER: inhibition of TEA uptake (TEA: 5 uM, GPFX: 2500 uM) in OCT2-expressing HEK293 cells. Particulars: hek293, 2500 µM.
Data set [9] shares this target. Nature of the data set: TP_TRANSPORTER: inhibition of TEA uptake (TEA: 5 uM, GPFX: 2500 uM) in OCT2A-expressing HEK293 cells. Particulars: hek293, 2500 µM.
For data set [10] the target is unchanged. Nature of the data set: TP_TRANSPORTER: uptake in OCT2-expressing HEK293 cells.
For data set [11] the target is unchanged. In words: TP_TRANSPORTER: inhibition of TEA uptake (TEA: 5 uM, Guanidine: 1000 uM) in OCT2A-expressing HEK293 cells. Conditions: hek293, 1000 µM.
Data set [12] shares this target. In words: TP_TRANSPORTER: inhibition of TEA uptake (TEA: 5 uM, Guanidine: 1000 uM) in OCT2-expressing HEK293 cells. Particulars: hek293, 1000 µM.
Data set [13] shares this target. Nature of the data set: TP_TRANSPORTER: inhibition of TEA uptake (TEA: 5 uM, Imipramine: 1000 uM) in OCT2A-expressing HEK293 cells. Particulars: hek293, 1000 µM.
The target is the same in data set [14]. Nature of the data set: TP_TRANSPORTER: inhibition of TEA uptake (TEA: 5 uM, Imipramine: 1000 uM) in OCT2-expressing HEK293 cells. Conditions: hek293, 1000 µM.
The target is the same in data set [15]. Nature of the data set: TP_TRANSPORTER: inhibition of TEA uptake (TEA: 5 uM, Levofloxacin: 2500 uM) in OCT2A-expressing HEK293 cells. Particulars: hek293, 2500 µM.
For data set [16] the target is unchanged. Nature of the data set: TP_TRANSPORTER: inhibition of TEA uptake (TEA: 5 uM, Levofloxacin: 2500 uM) in OCT2-expressing HEK293 cells. Conditions: hek293, 2500 µM.
Data set [17] has the same target. In words: TP_TRANSPORTER: inhibition of TEA uptake (TEA: 5 uM, NMN: 1000 uM) in OCT2A-expressing HEK293 cells. Particulars: hek293, 1000 µM.
The target is the same in data set [18]. In words: TP_TRANSPORTER: inhibition of TEA uptake (TEA: 5 uM, Noradrenaline: 1000 uM) in OCT2A-expressing HEK293 cells. Conditions: hek293, 1000 µM.
For data set [19] the target is unchanged. Nature of the data set: TP_TRANSPORTER: inhibition of TEA uptake (TEA: 5 uM, Noradrenaline: 1000 uM) in OCT2-expressing HEK293 cells. Conditions: hek293, 1000 µM.
Data set [20] has the same target. In words: TP_TRANSPORTER: inhibition of TEA uptake (TEA: 5 uM, Procainamide: 1000 uM) in OCT2A-expressing HEK293 cells. Conditions: hek293, 1000 µM.
Data set [21] has the same target. Nature of the data set: TP_TRANSPORTER: inhibition of TEA uptake (TEA: 5 uM, Procainamide: 1000 uM) in OCT2-expressing HEK293 cells. Conditions: hek293, 1000 µM.
Data set [22] shares this target. Nature of the data set: TP_TRANSPORTER: inhibition of TEA uptake (TEA: 5 uM, Serotonin: 1000 uM) in OCT2A-expressing HEK293 cells. Particulars: hek293, 1000 µM.
Data set [23] has the same target. In words: TP_TRANSPORTER: inhibition of TEA uptake (TEA: 5 uM, Serotonin: 1000 uM) in OCT2-expressing HEK293 cells. Conditions: hek293, 1000 µM.

For the compound `C[n+]1ccc(-c2ccccc2)cc1`, the Activity entry in data set [1] was “substrate [+]”; in [2], “inhibitor [(at a rough estimate) 5 % of control]”.
In the case of `CCN(CC)CCNC(=O)c1ccc(NC(C)=O)cc1` [ACECAINIDE], the Activity result in [3] is “inhibitor [(at a rough estimate) 15 % of control]”; in data set [4], “is not an inhibitor [-]”.
Regarding `NC12CC3CC(CC(C3)C1)C2` [AMANTADINE], the Activity result in data set [5] was “inhibitor [(at a rough estimate) 5 % of control]”.
Regarding `CN/C(=N/CCSCc1nc[nH]c1C)NC#N` [CIMETIDINE], the Activity entry in data set [1] was “is not a substrate [-]”.
For the compound `CN1CC(=O)NC1=N` [CREATININE], the Activity result was “inhibitor [(at a rough estimate) 95 % of control]” in data set [6] and “inhibitor [(at a rough estimate) 80 % of control]” in data set [7].
Consider `Cc1c(F)c(N2CCNC(C)C2)cc2c1c(=O)c(C(=O)O)cn2C1CC1` (centres undefined) [GREPAFLOXACIN], for which the Activity entry in data set [8] was “inhibitor [(at a rough estimate) 30 % of control]”; in data set [9], “inhibitor [(at a rough estimate) 5 % of control]”.
Turning to `N=C(N)N` [GUANIDINE], the Activity entry was “substrate [+]” in [10], “is not a substrate [-]” in data set [1], “inhibitor [(at a rough estimate) 80 % of control]” in [11] and “inhibitor [(at a rough estimate) 60 % of control]” in [12].
For the compound `CN(C)CCCN1c2ccccc2CCc2ccccc21` [IMIPRAMINE], the Activity entry was “inhibitor [(at a rough estimate) 5 % of control]” in data set [13] and “inhibitor [(at a rough estimate) 10 % of control]” in [14].
As for `C[C@H]1COc2c(N3CCN(C)CC3)c(F)cc3c(=O)c(C(=O)O)cn1c23.C[C@H]1COc2c(N3CCN(C)CC3)c(F)cc3c(=O)c(C(=O)O)cn1c23.O` [LEVOFLOXACIN], the Activity result is “is not a substrate [-]” in [10], “is not a substrate [-]” in data set [1], “inhibitor [(at a rough estimate) 25 % of control]” in data set [15] and “is not an inhibitor [-]” in data set [16].
On to `CNC(=O)c1cccnc1` [NICOTINYL METHYLAMIDE], for which the Activity entry in [17] is “inhibitor [(at a rough estimate) 30 % of control]”.
Take `NC[C@H](O)c1ccc(O)c(O)c1` [NOREPINEPHRINE]: the Activity result in data set [18] is “is not an inhibitor [-]”; in data set [19], “inhibitor [(at a rough estimate) 65 % of control]”.
Consider `CCN(CC)CCNC(=O)c1ccc(N)cc1` [PROCAINAMIDE], for which the Activity result in data set [20] was “inhibitor [(at a rough estimate) 15 % of control]”; in data set [21], “is not an inhibitor [-]”.
Consider `NCCc1c[nH]c2ccc(O)cc12` [SEROTONIN], for which the Activity entry is “inhibitor [(at a rough estimate) 35 % of control]” in data set [22] and “inhibitor [(at a rough estimate) 55 % of control]” in data set [23].
On to `Cc1cn([C@H]2C[C@H](N=[N+]=[N-])[C@@H](CO)O2)c(=O)[nH]c1=O` [ZIDOVUDINE], for which the Activity result in data set [10] and in data set [1] was “is not a substrate [-]” in each case.
